Literature values, collected in patent publication US20110160244A1, “PHENYL[…] MU-OPIOID RECEPTOR” (AUSPEX PHARMACEUTICALS, INC., priority 2008, published 2011).

Experiments:
[1] = after oral administration

CCOC(=O)C1(c2ccccc2)CCN(C)CC1 [Meperidine, Ethyl 1-methyl-4-phenylpiperidine-4-carboxylate]
time to peak analgesic effect (following oral administration): ≤ 2 h | time until analgesic effects are detectable (following oral administration): ≤ 15 min | time for which the drug is effective (statement on dosing interval): 2 h | fraction escaping first-pass metabolism [1]: about 50%
